Assay results: patent US20190202836A1, “SELECTIVE DUAL INHIBITORS OF PI3 DELTA AND GAMMA PROTEIN KINASES” (Rhizen Pharmaceuticals SA, priority 2014, published 2019)

Columns and labels:
[1] = system: Female Wistar rats; assay: Assay 7: Lipopolysaccharide induced pulmonary neutrophilia in female Wistar rat model; assay type: in vivo; conditions: 10 mg/kg, oral, LPS intratracheally, BAL fluid 6 hours after LPS
Experimental: After the quarantine period, fasted animals were randomized and divided into various groups depending on their body weights. The test compound (Compound A1) was prepared as a suspension in a vehicle consisting of 0.5% methylcellulose in which Tween 80 as a suspending agent. The compound or vehicle was administered by oral gavage at a volume of 10 mL/kg. Female Wistar rats were anaesthetized with ketamine and LPS solution was administered intratracheally one hour after compound administration at a dose of 1 mg/kg. 6 hours after LPS instillation, animals were exsanguinated under anaesthesia, and then the trachea was cannulated and the lungs were lavaged with 5 ml aliquots of heparinised PBS (1 unit/ml) four times through a tracheal cannula (total volume 20 mL). Bronchoalveolar lavage (BAL) fluid was stored at 2-8° C. until assayed for total cell and differential leukocyte count. Bronchioalveolar fluid was centrifuged (500×g for 10 minutes) and the resulting cell pellet was resuspended in 0.5 ml of heparinised saline. The total numbers of white blood cells were determined in BAL fluid or blood by using a blood cell counter and was adjusted to 1×10^6 cell/ml. Differential cell count was calculated manually. […] The number of each cell type among 300 white blood cells in the cell smear was determined and expressed as a percentage. The number of […] in each BALf or blood was calculated.

[2] = target: PI3Kγ (Homo sapiens, UniProt P48736); assay: Assay 4: fMLP induced CD63 expression in basophils from human whole blood; assay type: cell-based; design: endogenous in cells; host or cells: basophils in human whole blood; conditions: n=1, read-out: IC50 for fMLP (PI3K γ), CD63 positive basophils
Sequence of PI3Kγ (P48736 whole entry): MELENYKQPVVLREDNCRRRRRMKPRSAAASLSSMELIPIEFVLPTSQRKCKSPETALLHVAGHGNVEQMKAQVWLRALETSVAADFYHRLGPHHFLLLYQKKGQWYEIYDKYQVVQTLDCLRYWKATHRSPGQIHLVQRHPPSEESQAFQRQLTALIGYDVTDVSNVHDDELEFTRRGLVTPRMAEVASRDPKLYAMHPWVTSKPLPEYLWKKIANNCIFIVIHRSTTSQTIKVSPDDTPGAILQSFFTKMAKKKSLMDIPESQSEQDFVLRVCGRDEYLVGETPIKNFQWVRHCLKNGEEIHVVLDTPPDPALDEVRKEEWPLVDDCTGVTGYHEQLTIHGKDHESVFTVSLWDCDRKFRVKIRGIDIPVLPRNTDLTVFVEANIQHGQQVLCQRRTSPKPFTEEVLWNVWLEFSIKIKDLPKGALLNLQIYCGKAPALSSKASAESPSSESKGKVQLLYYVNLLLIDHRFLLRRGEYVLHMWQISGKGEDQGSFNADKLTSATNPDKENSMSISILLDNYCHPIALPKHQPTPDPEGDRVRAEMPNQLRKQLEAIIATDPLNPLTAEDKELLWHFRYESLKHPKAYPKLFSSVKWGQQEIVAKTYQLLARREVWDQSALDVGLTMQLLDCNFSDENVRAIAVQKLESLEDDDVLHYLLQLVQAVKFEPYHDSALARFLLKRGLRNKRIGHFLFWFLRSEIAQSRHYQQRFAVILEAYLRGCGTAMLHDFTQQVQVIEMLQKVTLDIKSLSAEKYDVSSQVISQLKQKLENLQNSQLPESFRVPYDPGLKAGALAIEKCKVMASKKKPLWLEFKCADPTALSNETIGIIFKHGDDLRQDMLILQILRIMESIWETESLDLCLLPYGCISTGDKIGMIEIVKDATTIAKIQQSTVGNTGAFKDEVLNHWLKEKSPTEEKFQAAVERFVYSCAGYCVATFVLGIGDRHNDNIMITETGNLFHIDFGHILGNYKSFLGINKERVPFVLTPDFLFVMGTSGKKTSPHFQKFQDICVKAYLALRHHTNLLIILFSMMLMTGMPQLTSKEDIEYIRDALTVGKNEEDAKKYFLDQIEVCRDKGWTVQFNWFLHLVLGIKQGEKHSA
Experimental: PI3K δ and γ signaling in basophils manifested by an alteration of anti-FcεR1 or fMLP induced CD63 expression is a useful pharmacodynamic marker determined using the Flow2CAST® kit (Buhlmann Laboratories, Switzerland). The test procedure involves the following steps: • Mix the anti-coagulated blood sample by inverting the venipuncture tube several times; • Prepare fresh and pyrogen-free 3.5 ml polypropylene or polystyrene tubes suitable for Flow Cytometry measurements; • Add 49 μl of patient's whole blood to each tube; • Add 1 μl of 10% DMSO (background) or test compound (10% DMSO) to the assigned tubes and mix gently. Incubate at room temperature for 15 minutes; • Pipet 50 μl of the Stimulation buffer (background) or anti-FcεRI Ab or fMLP to each tube; • Add 100 μl of Stimulation Buffer to each tube; • Mix gently. Add 20 μl Staining Reagent (1:1 mix of FITC-CD63 and PE-CCR3) to each tube; • Mix gently, cover the tubes and incubate for 15 minutes at 37° C. in a water bath. […]
Percent CD63 positive cells within the gated basophil population were determined in different treatment groups and normalized to vehicle control.

IC50 [2]: < 0.07 µM
Structure (SMILES): COc1ccc(-c2nn([C@@H](C)c3oc4cccc(F)c4c(=O)c3-c3cccc(F)c3)c3ncnc(N)c23)cc1NS(C)(=O)=O [Compound A1, (S)—N-(5-(4-amino-1-(1-(5-fluoro-3-(3-fluorophenyl)-4-oxo-4H-chromen-2-yl)ethyl)-1H-pyrazolo[3,4-d]pyrimidin-3-yl)-2-methoxyphenyl)methanesulfonamide]
inhibition of neutrophil infiltration into the lungs compared to the control group [1]: 65.29%
